Key:
[1] = target: T1, human α1G T-type channels (Homo sapiens, UniProt O43497); assay: T-type calcium channel block, whole cell patch clamp (α1G); type: cell-based; conditions: HEK cells stably expressing human α1G; mainly non-inactivated protocol; values above 10 μM represented as 10 μM, values below 0.30 μM represented as 0.30 μM
T1 construct: expressed in transfected cells; host or cells: HEK 293
Procedure, shortened: (§1)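 Resting block was measured mainly with the non-inactivated protocol: holding potential −110 mV, 1 s step to −100 mV, then a 50 ms test pulse at −40 mV. Recordings used stably transfected human α1G or α1H HEK293 lines, with compounds perfused in external solution containing 0.1-0.01% DMSO. IC50 values (μM) above 10 μM are reported as 10 μM.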

[2] = target: T2, human α1H T-type channels (Homo sapiens, UniProt O95180); assay: T-type calcium channel block, whole cell patch clamp (α1H); type: cell-based; conditions: HEK cells stably expressing human α1H; mainly non-inactivated protocol; values above 10 μM represented as 10 μM
T2 construct: expressed in transfected cells; host or cells: HEK 293
Procedure, shortened: as §1

T1 sequence (O43497 whole entry): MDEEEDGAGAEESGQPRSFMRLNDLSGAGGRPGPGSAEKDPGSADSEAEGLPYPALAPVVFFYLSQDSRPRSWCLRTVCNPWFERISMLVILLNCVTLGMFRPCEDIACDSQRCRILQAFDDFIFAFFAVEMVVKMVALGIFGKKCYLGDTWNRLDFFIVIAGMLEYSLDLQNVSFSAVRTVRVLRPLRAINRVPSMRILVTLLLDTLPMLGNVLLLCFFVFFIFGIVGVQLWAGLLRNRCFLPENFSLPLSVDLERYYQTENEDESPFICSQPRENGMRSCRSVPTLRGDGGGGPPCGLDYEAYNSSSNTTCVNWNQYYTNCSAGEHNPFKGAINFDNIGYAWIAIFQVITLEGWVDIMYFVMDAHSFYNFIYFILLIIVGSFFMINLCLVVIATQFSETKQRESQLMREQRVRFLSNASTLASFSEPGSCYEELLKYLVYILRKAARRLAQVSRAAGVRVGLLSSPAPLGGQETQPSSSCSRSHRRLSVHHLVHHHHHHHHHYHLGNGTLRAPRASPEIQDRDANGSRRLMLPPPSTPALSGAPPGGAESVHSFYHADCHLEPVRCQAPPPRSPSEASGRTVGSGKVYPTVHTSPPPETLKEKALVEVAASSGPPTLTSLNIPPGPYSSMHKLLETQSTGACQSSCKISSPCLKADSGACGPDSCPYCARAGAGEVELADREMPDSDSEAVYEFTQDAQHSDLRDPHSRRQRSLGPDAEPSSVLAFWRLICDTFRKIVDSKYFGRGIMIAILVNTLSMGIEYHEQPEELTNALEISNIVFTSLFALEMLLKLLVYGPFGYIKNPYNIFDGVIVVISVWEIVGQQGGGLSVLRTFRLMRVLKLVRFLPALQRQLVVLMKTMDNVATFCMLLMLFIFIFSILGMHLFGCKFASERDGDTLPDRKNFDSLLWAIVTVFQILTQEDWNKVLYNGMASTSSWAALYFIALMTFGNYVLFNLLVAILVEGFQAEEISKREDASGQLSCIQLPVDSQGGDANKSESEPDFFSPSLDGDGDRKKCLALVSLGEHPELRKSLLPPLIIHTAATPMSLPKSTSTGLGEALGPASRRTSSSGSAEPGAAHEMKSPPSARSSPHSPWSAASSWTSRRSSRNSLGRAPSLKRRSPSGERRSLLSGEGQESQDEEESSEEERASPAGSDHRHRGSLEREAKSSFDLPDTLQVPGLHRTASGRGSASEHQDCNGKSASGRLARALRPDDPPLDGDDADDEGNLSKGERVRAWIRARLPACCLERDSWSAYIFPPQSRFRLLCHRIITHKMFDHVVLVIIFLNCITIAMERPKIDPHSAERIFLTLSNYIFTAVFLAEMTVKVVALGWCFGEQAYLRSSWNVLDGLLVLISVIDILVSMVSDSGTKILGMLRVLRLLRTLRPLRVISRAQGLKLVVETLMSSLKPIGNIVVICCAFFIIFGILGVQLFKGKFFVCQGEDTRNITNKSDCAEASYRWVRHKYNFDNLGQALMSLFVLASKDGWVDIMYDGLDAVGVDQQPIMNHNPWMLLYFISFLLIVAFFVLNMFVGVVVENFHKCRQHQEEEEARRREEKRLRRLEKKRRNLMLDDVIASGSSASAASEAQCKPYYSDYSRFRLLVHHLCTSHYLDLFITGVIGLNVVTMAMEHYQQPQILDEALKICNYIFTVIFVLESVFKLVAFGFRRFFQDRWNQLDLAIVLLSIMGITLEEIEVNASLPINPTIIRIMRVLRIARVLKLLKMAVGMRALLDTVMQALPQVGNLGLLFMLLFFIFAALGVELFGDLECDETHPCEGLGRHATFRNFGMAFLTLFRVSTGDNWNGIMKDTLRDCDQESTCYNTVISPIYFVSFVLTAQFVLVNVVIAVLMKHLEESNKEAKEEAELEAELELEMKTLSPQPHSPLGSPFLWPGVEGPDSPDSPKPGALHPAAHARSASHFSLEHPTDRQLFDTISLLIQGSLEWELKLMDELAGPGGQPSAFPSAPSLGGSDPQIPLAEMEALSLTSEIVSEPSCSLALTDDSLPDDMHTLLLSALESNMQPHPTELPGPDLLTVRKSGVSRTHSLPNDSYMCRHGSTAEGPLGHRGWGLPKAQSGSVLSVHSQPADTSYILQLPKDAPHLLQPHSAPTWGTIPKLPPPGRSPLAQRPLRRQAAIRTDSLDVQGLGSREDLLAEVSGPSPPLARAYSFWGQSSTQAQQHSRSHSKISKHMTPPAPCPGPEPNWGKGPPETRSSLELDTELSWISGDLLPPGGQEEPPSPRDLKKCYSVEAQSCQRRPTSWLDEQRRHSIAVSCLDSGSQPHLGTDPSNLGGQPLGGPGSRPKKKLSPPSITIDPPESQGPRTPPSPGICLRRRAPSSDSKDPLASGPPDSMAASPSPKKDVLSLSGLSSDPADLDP
T2 sequence (O95180 whole entry): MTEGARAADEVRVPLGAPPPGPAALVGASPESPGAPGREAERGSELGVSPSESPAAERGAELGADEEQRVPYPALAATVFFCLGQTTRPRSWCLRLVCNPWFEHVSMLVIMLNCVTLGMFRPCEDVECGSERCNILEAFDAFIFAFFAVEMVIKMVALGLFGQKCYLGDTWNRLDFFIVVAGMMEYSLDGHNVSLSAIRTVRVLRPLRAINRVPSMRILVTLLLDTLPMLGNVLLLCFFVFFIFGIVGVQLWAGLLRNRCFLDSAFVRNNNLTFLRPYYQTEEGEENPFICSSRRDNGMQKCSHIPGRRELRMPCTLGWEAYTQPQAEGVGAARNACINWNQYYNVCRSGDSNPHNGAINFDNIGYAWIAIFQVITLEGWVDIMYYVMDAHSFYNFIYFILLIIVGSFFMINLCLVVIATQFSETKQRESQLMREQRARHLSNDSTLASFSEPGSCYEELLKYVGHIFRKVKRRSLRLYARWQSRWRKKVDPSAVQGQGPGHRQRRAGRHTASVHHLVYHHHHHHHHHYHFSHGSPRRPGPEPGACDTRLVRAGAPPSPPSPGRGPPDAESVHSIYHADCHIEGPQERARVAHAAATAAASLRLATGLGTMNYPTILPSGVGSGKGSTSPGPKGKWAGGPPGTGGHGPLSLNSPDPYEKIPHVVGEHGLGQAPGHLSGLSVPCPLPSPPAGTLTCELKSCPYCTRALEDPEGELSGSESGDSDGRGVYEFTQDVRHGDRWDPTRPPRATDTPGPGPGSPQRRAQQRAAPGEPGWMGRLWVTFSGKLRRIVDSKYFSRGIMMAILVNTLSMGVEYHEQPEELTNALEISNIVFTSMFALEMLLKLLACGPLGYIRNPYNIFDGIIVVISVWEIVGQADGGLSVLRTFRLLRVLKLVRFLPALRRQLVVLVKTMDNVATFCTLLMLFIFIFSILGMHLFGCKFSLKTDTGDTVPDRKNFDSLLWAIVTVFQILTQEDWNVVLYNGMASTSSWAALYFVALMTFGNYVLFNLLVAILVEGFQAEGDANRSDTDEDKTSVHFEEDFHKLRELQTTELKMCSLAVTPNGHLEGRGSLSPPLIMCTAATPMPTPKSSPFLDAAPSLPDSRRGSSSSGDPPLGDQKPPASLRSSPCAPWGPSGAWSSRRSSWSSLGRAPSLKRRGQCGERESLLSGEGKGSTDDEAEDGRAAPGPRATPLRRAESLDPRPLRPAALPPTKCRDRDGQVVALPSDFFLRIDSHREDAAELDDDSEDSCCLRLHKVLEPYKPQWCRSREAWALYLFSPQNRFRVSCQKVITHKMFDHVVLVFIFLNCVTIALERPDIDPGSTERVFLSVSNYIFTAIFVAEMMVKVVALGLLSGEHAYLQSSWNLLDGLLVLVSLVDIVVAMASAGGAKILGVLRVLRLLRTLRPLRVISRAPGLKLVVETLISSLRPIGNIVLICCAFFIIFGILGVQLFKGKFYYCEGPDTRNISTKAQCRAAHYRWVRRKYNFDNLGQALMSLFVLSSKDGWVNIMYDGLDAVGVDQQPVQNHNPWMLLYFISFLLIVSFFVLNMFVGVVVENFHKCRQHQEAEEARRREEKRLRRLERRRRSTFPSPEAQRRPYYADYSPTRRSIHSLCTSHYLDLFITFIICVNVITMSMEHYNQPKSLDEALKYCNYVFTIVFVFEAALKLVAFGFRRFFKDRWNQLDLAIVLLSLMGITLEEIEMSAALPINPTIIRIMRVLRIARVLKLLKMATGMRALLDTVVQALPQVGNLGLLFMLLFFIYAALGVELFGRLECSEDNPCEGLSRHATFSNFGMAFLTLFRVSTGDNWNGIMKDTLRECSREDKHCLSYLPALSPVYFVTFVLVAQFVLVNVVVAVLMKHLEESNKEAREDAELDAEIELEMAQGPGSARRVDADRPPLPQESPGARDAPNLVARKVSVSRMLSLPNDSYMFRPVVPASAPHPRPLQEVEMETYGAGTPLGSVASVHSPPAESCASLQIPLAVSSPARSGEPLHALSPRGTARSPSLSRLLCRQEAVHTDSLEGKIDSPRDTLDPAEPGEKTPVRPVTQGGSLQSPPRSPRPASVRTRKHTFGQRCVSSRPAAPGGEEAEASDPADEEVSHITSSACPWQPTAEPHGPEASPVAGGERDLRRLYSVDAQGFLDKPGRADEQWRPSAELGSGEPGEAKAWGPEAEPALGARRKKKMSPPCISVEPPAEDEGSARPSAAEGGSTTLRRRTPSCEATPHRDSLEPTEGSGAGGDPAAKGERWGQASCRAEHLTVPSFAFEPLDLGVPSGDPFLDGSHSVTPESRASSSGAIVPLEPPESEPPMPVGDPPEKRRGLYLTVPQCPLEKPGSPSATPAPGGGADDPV

| IC50 [1] [nM] | IC50 [2] [nM] | SMILES |
| --- | --- | --- |
| 2920 | 1320 | CC(C)(C)NC(=O)CN[C@H]1CC[C@@H](CNC(=O)c2cccc(Cl)c2)CC1 [Compound 179, N-(((1s,4s)-4-(2-(tert-butylamino)-2-oxoethylamino)cyclohexyl)methyl)-3-chlorobenzamide] |
| 3650 | 330 | COc1cc(OC)cc(C(=O)NC[C@H]2CC[C@@H](NCC(=O)NC(C)(C)C)CC2)c1 [Compound 181, N-(((1s,4s)-4-(2-(tert-butylamino)-2-oxoethylamino)cyclohexyl)methyl)-3,5-dimethoxybenzamide] |
| 2370 | 3420 | CC(C)(C)NC(=O)CN[C@H]1CC[C@@H](CNC(=O)c2cccc(C(F)(F)F)c2)CC1 [Compound 182, N-(((1s,4s)-4-(2-(tert-butylamino)-2-oxoethylamino)cyclohexyl)methyl)-3-(trifluoromethyl)benzamide] |
| 2240 | 820 | CC(C)(C)NC(=O)CN[C@H]1CC[C@@H](CNC(=O)c2cccc(Br)c2)CC1 [Compound 183, 3-bromo-N-(((1s,4s)-4-(2-(tert-butylamino)-2-oxoethylamino)cyclohexyl)methyl)benzamide] |
| 790 | 330 | CC(C)(C)NC(=O)CN[C@H]1CC[C@@H](CNC(=O)c2cccc(OC(F)(F)F)c2)CC1 [Compound 185, N-(((1s,4s)-4-(2-(tert-butylamino)-2-oxoethylamino)cyclohexyl)methyl)-3-(trifluoromethoxy)benzamide] |
| 1180 | 260 | CC(C)(C)NC(=O)CN[C@H]1CC[C@@H](CNC(=O)c2cc(F)cc(Cl)c2)CC1 [Compound 186, N-(((1s,4s)-4-(2-(tert-butylamino)-2-oxoethylamino)cyclohexyl)methyl)-3-chloro-5-fluorobenzamide] |
| ≤ 300 | 60 | CC(C)(C)NC(=O)CN[C@H]1CC[C@@H](CNC(=O)c2cc(Cl)cc(Cl)c2)CC1 [Compound 187, N-(((1s,4s)-4-(2-(tert-butylamino)-2-oxoethylamino)cyclohexyl)methyl)-3,5-dichlorobenzamide] |
| 4280 | 1230 | Cc1cc(F)cc(C(=O)NC[C@H]2CC[C@@H](NCC(=O)NC(C)(C)C)CC2)c1 [Compound 188, N-(((1s,4s)-4-(2-(tert-butylamino)-2-oxoethylamino)cyclohexyl)methyl)-3-fluoro-5-methylbenzamide] |
| 3660 | 1660 | CC(C)(C)NC(=O)CN[C@H]1CC[C@H](CNC(=O)c2cccc(OC(F)(F)F)c2)CC1 [Compound 189, N-(((1r,4r)-4-(2-(tert-butylamino)-2-oxoethylamino)cyclohexyl)methyl)-3-(trifluoromethoxy)benzamide] |
| 1630 | 620 | CC1(NC(=O)CN[C@H]2CC[C@H](CNC(=O)c3cccc(OC(F)(F)F)c3)CC2)CCC1 [Compound 190, N-(((1r,4r)-4-(2-(1-methylcyclobutylamino)-2-oxoethylamino)cyclohexyl)methyl)-3-(trifluoromethoxy)benzamide] |
| 530 | 180 | CC(C)(C)NC(=O)CN[C@H]1CC[C@H](CNC(=O)c2cc(Cl)cc(Cl)c2)CC1 [Compound 191, N-(((1r,4r)-4-(2-(tert-butylamino)-2-oxoethylamino)cyclohexyl)methyl)-3,5-dichlorobenzamide] |
| 340 | 120 | CC1(NC(=O)CN[C@H]2CC[C@H](CNC(=O)c3cc(Cl)cc(Cl)c3)CC2)CCC1 [Compound 192, 3,5-dichloro-N-(((1r,4r)-4-(2-(1-methylcyclobutylamino)-2-oxoethylamino)cyclohexyl)methyl)benzamide] |
| 720 | 230 | CC1(NC(=O)CN[C@H]2CC[C@@H](CNC(=O)c3cc(F)cc(Cl)c3)CC2)CCC1 [Compound 193, 3-chloro-5-fluoro-N-(((1s,4s)-4-(2-(1-methylcyclobutylamino)-2-oxoethylamino)cyclohexyl)methyl)benzamide] |

Source: patent US20090298834A1, “4-(AMINOMETHYL)CYCLOHEXANAMINE DERIVATIVES AS CALCIUM CHANNEL BLOCKERS” (priority 2008, published 2009)
